Test results reported in patent US9446019B2, “Sparstolonin B based pharmaceutical agent for neuroblastoma treatment” (University of South Carolina, priority 2013, dated 2016).

How the values were obtained:
[1] = test system: IMR-32 cells; assay: Cell cycle analysis by flow cytometry (propidium iodide); assay type: cell-based, human; details: SsnB 10 μM, 2 days; control=19.25%
Method: (§1) The cell cycle progression was determined by flow cytometer analysis. Neuroblastoma cells were treated with SsnB or DMSO in DMEM with 10% FBS. Cells were collected after trypsinization with trypsin-EDTA solution (Atlanta Biologicals) and washed with 1× phosphate buffered saline (PBS). Approximately 1×10^6 cells were suspended in 300 μl of ice-cold 1×PBS, fixed by adding 700 μl of chilled absolute ethanol (to make final ethanol concentration 70%) drop wise and incubated for overnight at −20° C. Cells were pelleted at 1000×rpm for 5 min at 4° C., washed with 1×PBS for 3 times and stained with propidium iodide (Sigma-Aldrich, St. Louis, Mo.) by adding 1 ml of propidium iodide staining solution (containing 20 μg/ml propidium iodide and 10 μg/ml DNase-free RNase A in 0.1% Triton X-100/PBS) for 1 h on ice in dark. Samples were subjected to fluorescence-activated cell sorting analyses utilizing Beckman Coulter flow cytometer (Beckman Coulter, Indianapolis, Ind.). A minimum of 10,000 events were analyzed in each experiment.
(§2) To test whether SsnB-induced cell growth inhibition occurs through cell cycle arrest, cell cycle distribution was analyzed by flow cytometry after DNA staining with propidium iodide.

[2] = test system: SH-SY5Y cells; assay: as above; assay type: cell-based, human; details: SsnB 10 μM, 2 days; control=14.33%
Method: as §1, §2

[3] = test system: SK-N-BE(2) cells; assay: as above; assay type: cell-based, human; details: SsnB 10 μM, 4 days; control=22.63%
Method: as §1, §2

[4] = test system: NGP cells; assay: as above; assay type: cell-based, human; details: SsnB 10 μM, 3 days; control=17.87%
Method: as §1, §2

[5] = test system: SKNF-1 cells; assay: as above; assay type: cell-based, human; details: SsnB 10 μM, 4 days; control=14.53%
Method: as §1, §2

[6] = test system: human neuroblastoma cell lines (SH-SY5Y, SKNF-1, NGP, IMR-32 and SK-N-BE(2) cells); assay: Cell morphology by phase contrast microscopy; assay type: cell-based
From the text: Human neuroblastoma cell lines (SH-SY5Y, IMR-32, SK-N-BE(2) and SKNF-1 cells) were obtained from The American Type Culture Collection (ATCC; Manassas, Va.), and NGP cells were kind gift from Garrett M. Brodeur (The Children's Hospital of Philadelphia, Philadelphia, Pa.). All cell lines were maintained in complete Dulbecco's Modified Eagle's Medium (DMEM) supplemented with 10% fetal bovine serum (FBS; Atlanta Biologicals, Lawrenceville, Ga.) and 1× antibiotic-antimycotic solution (containing 100 U/ml penicillin, 100 μg/ml streptomycin and 0.25 μg/ml amphotericin B), and grown at 37° C. in a humidified incubator with 5% CO2. Stock solution of SsnB was prepared in dimethyl sulfoxide (DMSO). Cells treated with different concentrations of SsnB in DMEM with 10% FBS were grown for subsequent days. Cells treated with equal volume of DMSO were used as control.
To test the inhibitory effects of SsnB on neuroblastoma cell survival, human neuroblastoma cell lines of different genetic background (SH-SY5Y, SKNF-1, NGP, IMR-32 and SK-N-BE(2) cells) were treated with 1 μM, 5 μM, 10 μM or 20 μM concentration of SsnB under in vitro conditions. Following SsnB treatments, neuroblastoma cell were grown and were photographed under light microscope to evaluate the cell morphology.

In the case of `O=c1occ2c3c(ccc(O)c13)Oc1ccc(O)cc1-2` [SsnB, 8,5′-dihydroxy-4-phenyl-5,2′-oxidoisocoumarin], the G2/M phase cells [1] is reported as 23.45%, the G2/M phase cells [2] is reported as 23.98% and the G2/M phase cells [3] is reported as 27.15%. For the same compound, the G2/M phase cells [4] was 26.98%, the G2/M phase cells [5] was 20.91% and the “cell morphology (rounded cells, indication of cell death) vs DMSO” value ([6]; SsnB 10 μM and above, 2, 3 or 4 days depending on line) was “changed the morphology”. The morphological changes ([6]; SsnB 1 or 5 μM, any cell line tested) was “not significant”.
